The results in this text go back to the supplement of paper PMC11208160.
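Note: IS621 bridge recombinase in Escherichia coli cells against a fixed T5 target plasmid.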

The series is described as follows: recombinant UMI read abundance after kanamycin selection (control-corrected) (log10(CPM+1)); higher = more efficient recombination; extreme values may be limits of the assay; sequences stand for … in AGTGCAGAGAAAATCGGCCAGTTTTCTCTGCCTGCAGTCCGCATGCCGTGGGACCCCTTGGGTTCTAACCTGTTGCCTAGATTTATGCAGCGGACTGCCTTTCTCCCAAAGTGATAAACCGG…AGGTTGGTTTCACT; site = the 11-nt donor. Put shortly:
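Values, expressed as log10(CPM+1), derive from recombinant UMI counts converted to CPM, averaged across replicates and scaled by control-derived factors. Plating was with IPTG (0.07 mM) plus kanamycin or unselected, two replicates each. The screen pooled donor and donor-binding-loop pairs for the IS621 bridge recombinase in Escherichia coli.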
For “AGCTCAGCATGGACCGGTTTTCCCGGTAATCCGTATTTGCG (site AGCTCAGCTCC)”, the “recombinant UMI read abundance (log10)” value was determined as 0.00908.

Regarding “AGCTCAGCATGGACCGGTTTTCCCGGTAATCCGTATTTGCG (site AGCTCAGCTCG)”, the “recombinant UMI read abundance (log10)” value turned out to be 0.537.

On to “AGCTCAGCATGGACCGGTTTTCCCGGTAATCCGTATTTGCG (site AGCTCAGCTCT)”, for which the “recombinant UMI read abundance (log10)” value stood at 0.277.

Take “AGCTCCGCATGGACCGGTTTTCCCGGTAATCCGTATTTGCG (site AGCTCCGCTCG)”: the “recombinant UMI read abundance (log10)” value worked out at 0.271.

On to “AGCTGGTCATGGACCGGTTTTCCCGGTAATCCGTATTTGTA (site AGCTGGTCTTA)”, for which the “recombinant UMI read abundance (log10)” value came to 0.951.

For the sequence “AGCTTAGCATGGACCGGTTTTCCCGGTAATCCGTATTTGGG (site AGCTAAGCTCC)”, the “recombinant UMI read abundance (log10)” value amounted to 0.0186.

As for “AGCTTAGCATGGACCGGTTTTCCCGGTAATCCGTATTTGGG (site AGCTCAGCTCC)”, the “recombinant UMI read abundance (log10)” value is 0.0187.

In the case of “AGCTTAGCATGGACCGGTTTTCCCGGTAATCCGTATTTGGG (site AGCTGAGCTCC)”, the “recombinant UMI read abundance (log10)” value was 0.034.

Regarding “AGCTTAGCATGGACCGGTTTTCCCGGTAATCCGTATTTGGG (site AGCTTAGCTCC)”, the “recombinant UMI read abundance (log10)” value was 0.0198.

“AGGAAACCATGGACCGGTTTTCCCGGTAATCCGTATTTGTT (site AGGAAACCTAA)”: the “recombinant UMI read abundance (log10)” value was determined as 0.

Turning to “AGGAAACCATGGACCGGTTTTCCCGGTAATCCGTATTTGTT (site CGGAATCCTAA)”, the “recombinant UMI read abundance (log10)” value worked out at 0.

As for “AGGAACACATGGACCGGTTTTCCCGGTAATCCGTATTTGAA (site AGGAACACTTT)”, the “recombinant UMI read abundance (log10)” value was determined as 2.29.

In the case of “AGGAACACATGGACCGGTTTTCCCGGTAATCCGTATTTGAA (site AGGAAGACTTG)”, the “recombinant UMI read abundance (log10)” value came to 0.

“AGGAACCCATGGACCGGTTTTCCCGGTAATCCGTATTTGCA (site AGGAACCCTTG)”: the “recombinant UMI read abundance (log10)” value turned out to be 0.786.

On to “AGGAACCCATGGACCGGTTTTCCCGGTAATCCGTATTTGCA (site AGGAAGACTTG)”, for which the “recombinant UMI read abundance (log10)” value came out at 0.

Take “AGGAAGACATGGACCGGTTTTCCCGGTAATCCGTATTTGAA (site AGGAAGACTTA)”: the “recombinant UMI read abundance (log10)” value came to 0.985.

Take “AGGAAGACATGGACCGGTTTTCCCGGTAATCCGTATTTGAA (site AGGAAGACTTC)”: the “recombinant UMI read abundance (log10)” value turned out to be 0.592.

As for “AGGAAGACATGGACCGGTTTTCCCGGTAATCCGTATTTGAA (site AGGAAGACTTG)”, the “recombinant UMI read abundance (log10)” value stood at 0.298.

Take “AGGAAGACATGGACCGGTTTTCCCGGTAATCCGTATTTGAA (site AGGAAGACTTT)”: the “recombinant UMI read abundance (log10)” value is 2.37.

Turning to “AGGAAGACATGGACCGGTTTTCCCGGTAATCCGTATTTGCA (site AAGAACACTTG)”, the “recombinant UMI read abundance (log10)” value amounted to 0.

In the case of “AGGAAGACATGGACCGGTTTTCCCGGTAATCCGTATTTGCA (site AAGAAGACTGG)”, the “recombinant UMI read abundance (log10)” value stood at 0.

Consider “AGGAAGACATGGACCGGTTTTCCCGGTAATCCGTATTTGCA (site AAGAAGACTTG)”, for which the “recombinant UMI read abundance (log10)” value came to 1.06.

“AGGAAGACATGGACCGGTTTTCCCGGTAATCCGTATTTGCA (site AAGAAGACTTT)”: the “recombinant UMI read abundance (log10)” value was found to be 0.0128.

Regarding “AGGAAGACATGGACCGGTTTTCCCGGTAATCCGTATTTGCA (site AAGAAGCCTTG)”, the “recombinant UMI read abundance (log10)” value was 0.

On to “AGGAAGACATGGACCGGTTTTCCCGGTAATCCGTATTTGCA (site AAGAGGACTTG)”, for which the “recombinant UMI read abundance (log10)” value was 0.101.

“AGGAAGACATGGACCGGTTTTCCCGGTAATCCGTATTTGCA (site AAGTAGACTTG)”: the “recombinant UMI read abundance (log10)” value was found to be 1.23.

“AGGAAGACATGGACCGGTTTTCCCGGTAATCCGTATTTGCA (site AATAAGACTTG)”: the “recombinant UMI read abundance (log10)” value worked out at 1.43.

Regarding “AGGAAGACATGGACCGGTTTTCCCGGTAATCCGTATTTGCA (site ACAAAGACTTG)”, the “recombinant UMI read abundance (log10)” value was 1.25.

“AGGAAGACATGGACCGGTTTTCCCGGTAATCCGTATTTGCA (site ACGAAAACTTG)”: the “recombinant UMI read abundance (log10)” value worked out at 0.

In the case of “AGGAAGACATGGACCGGTTTTCCCGGTAATCCGTATTTGCA (site ACGAAGACTCG)”, the “recombinant UMI read abundance (log10)” value was 0.0101.

On to “AGGAAGACATGGACCGGTTTTCCCGGTAATCCGTATTTGCA (site ACGAAGACTTA)”, for which the “recombinant UMI read abundance (log10)” value was 0.00527.

With “AGGAAGACATGGACCGGTTTTCCCGGTAATCCGTATTTGCA (site ACGAAGACTTG)”, the “recombinant UMI read abundance (log10)” value was determined as 0.832.

As to “AGGAAGACATGGACCGGTTTTCCCGGTAATCCGTATTTGCA (site ACGAAGTCTTG)”, the “recombinant UMI read abundance (log10)” value was 0.

In the case of “AGGAAGACATGGACCGGTTTTCCCGGTAATCCGTATTTGCA (site ACGATGACTTG)”, the “recombinant UMI read abundance (log10)” value amounted to 0.

For the sequence “AGGAAGACATGGACCGGTTTTCCCGGTAATCCGTATTTGCA (site ACGGAGACTTG)”, the “recombinant UMI read abundance (log10)” value amounted to 2.51.

In the case of “AGGAAGACATGGACCGGTTTTCCCGGTAATCCGTATTTGCA (site AGAAAAACTTG)”, the “recombinant UMI read abundance (log10)” value came out at 0.

As for “AGGAAGACATGGACCGGTTTTCCCGGTAATCCGTATTTGCA (site AGAAAGACTCG)”, the “recombinant UMI read abundance (log10)” value was 0.0197.

Take “AGGAAGACATGGACCGGTTTTCCCGGTAATCCGTATTTGCA (site AGAAAGACTTA)”: the “recombinant UMI read abundance (log10)” value worked out at 0.795.

Turning to “AGGAAGACATGGACCGGTTTTCCCGGTAATCCGTATTTGCA (site AGAAAGACTTG)”, the “recombinant UMI read abundance (log10)” value was 2.32.

Turning to “AGGAAGACATGGACCGGTTTTCCCGGTAATCCGTATTTGCA (site AGAAAGTCTTG)”, the “recombinant UMI read abundance (log10)” value turned out to be 0.0125.

As to “AGGAAGACATGGACCGGTTTTCCCGGTAATCCGTATTTGCA (site AGAATGACTTG)”, the “recombinant UMI read abundance (log10)” value was 0.777.

On to “AGGAAGACATGGACCGGTTTTCCCGGTAATCCGTATTTGCA (site AGAGAGACTTG)”, for which the “recombinant UMI read abundance (log10)” value is 1.79.

Regarding “AGGAAGACATGGACCGGTTTTCCCGGTAATCCGTATTTGCA (site AGCAAGACTAG)”, the “recombinant UMI read abundance (log10)” value was 0.0137.

In the case of “AGGAAGACATGGACCGGTTTTCCCGGTAATCCGTATTTGCA (site AGCAAGACTTC)”, the “recombinant UMI read abundance (log10)” value was found to be 0.00298.

“AGGAAGACATGGACCGGTTTTCCCGGTAATCCGTATTTGCA (site AGCAAGACTTG)”: the “recombinant UMI read abundance (log10)” value was 0.723.

“AGGAAGACATGGACCGGTTTTCCCGGTAATCCGTATTTGCA (site AGCAAGGCTTG)”: the “recombinant UMI read abundance (log10)” value came out at 0.00883.

As to “AGGAAGACATGGACCGGTTTTCCCGGTAATCCGTATTTGCA (site AGCAATACTTG)”, the “recombinant UMI read abundance (log10)” value amounted to 0.

On to “AGGAAGACATGGACCGGTTTTCCCGGTAATCCGTATTTGCA (site AGCACGACTTG)”, for which the “recombinant UMI read abundance (log10)” value turned out to be 0.

With “AGGAAGACATGGACCGGTTTTCCCGGTAATCCGTATTTGCA (site AGCCAGACTTG)”, the “recombinant UMI read abundance (log10)” value turned out to be 0.654.

In the case of “AGGAAGACATGGACCGGTTTTCCCGGTAATCCGTATTTGCA (site AGGAAAACTCG)”, the “recombinant UMI read abundance (log10)” value was determined as 0.

For the sequence “AGGAAGACATGGACCGGTTTTCCCGGTAATCCGTATTTGCA (site AGGAAAACTTA)”, the “recombinant UMI read abundance (log10)” value was 0.

As for “AGGAAGACATGGACCGGTTTTCCCGGTAATCCGTATTTGCA (site AGGAAAACTTG)”, the “recombinant UMI read abundance (log10)” value is 0.57.
